Reference: US8628961B2, “Small molecule antagonists of phosphatidylinositol-3,4,5-triphosphate (PIP3) and uses thereof” (Tufts University, priority 2010, dated 2014)

Legend:
SUM159 cells = test: Cell polarization in wounded monolayers after PDGF; assay type: cell-based, human; conditions: wound healing model, 100 μM
Protocol: In order to measure cell polarization, wounds were generated in SUM159 cell monolayers, followed by serum starvation and treatment with 100 μM PIT-1, PIT-2, PIT-1i-1, or PIT-1i-2 for 2 hr. Cells were stimulated for 15 min with 100 ng/ml PDGF, fixed and stained with TRITC-phalloidin for F-actin (red), acetylated tubulin antibody (green) for microtubule organization center (MTOC), and Hoechst for nuclei (blue). Cell polarization was evaluated by analysis of the relative location of the MTOC and nucleus. […] The number of polarized cells was counted in five random fields under fluorescent microscope.

human cancer cells = test: Cancer cell migration, transwell migration and wound closure models; assay type: cell-based; conditions: for cancer cell migration: model not specified
Protocol: Two models of cell migration were used, a transwell migration model and a wound closure model. Migration of cancer and endothelial cells was evaluated using 24-transwell Boyden chamber (Costar, Bedford, Mass.) with a polystyrene membrane (6.5 mm diameter, 10 μm thickness, and 8 μm pore size). Cells were suspended in serum-free media and seeded in the upper compartment of each well (2×10^4 cells/well) in the presence or absence of different compounds at the indicated concentrations. The lower compartment contained 600 μl of serum-free culture media supplemented with growth factors. After an 8-hr incubation at 37° C., cells were fixed and stained with 0.1% crystal violet. Non-migrating cells on the upper surface of the filter were removed, and the stained cells that migrated to the lower side were photographed using a phase-contrast microscope (Nikon, Japan) in five random fields. The cells were lysed with 10% acetic acid, and colorimetric determination was made at 595 nm using Wallac Victor 3 plate reader.
Cancer or endothelial cells were seeded into fibronectin-coated 96-well plates (2×10^4 cells/well). After reaching confluence, cell monolayers were scratched with a pipette tip to obtain a “wound”. The media and dislodged cells were aspirated and replaced by fresh serum-free media in the presence of growth factors, with or without compounds at different concentrations. After an 8-hr incubation at 37° C., cells were photographed using a phase-contrast microscope in five random fields. The width of wounded cell monolayers in images was measured and the inhibition rates of migration were calculated as inhibition rate=[1−(compound-treated group/control group)]×100%, and IC50 value was determined using Origin6 software (MicroCal, LLC, Northampton, Mass.).

GRP1 PH domain = GRP1 PH domain (Homo sapiens, UniProt O43739); test: FP PIP3/GRP1 PH domain binding assay; conditions: 15 nM TMR-conjugated PIP3, 100 nM GRP1 PH domain, 30 min
[1] = test system: SUM159 cells transfected with VAV2 or WAVE2; test: Wound migration of VAV- or WAVE-overexpressing cells; assay type: cell-based, human; conditions: PDGF, 8 hr
Protocol: SUM159 cells were transfected with VAV2 or WAVE2. Scratch wound was generated in cell monolayer, followed by treatment with PIT-1 (100 μM) in the presence of PDGF (100 ng/ml) stimulation for 8 hr. The inhibitory effect of PITs on VAV- or WAVE-induced cell migration was calculated according to the width of wound. The width of wounded cell monolayers was measured in five random fields.

Btk PH domain = Btk PH domain (Homo sapiens (Human), UniProt Q06187); test: PH domain translocation assay (GFP fusion, plasma membrane); assay type: cell-based; conditions: PDGF stimulation
Sequence of Btk PH domain (Q06187 3-133): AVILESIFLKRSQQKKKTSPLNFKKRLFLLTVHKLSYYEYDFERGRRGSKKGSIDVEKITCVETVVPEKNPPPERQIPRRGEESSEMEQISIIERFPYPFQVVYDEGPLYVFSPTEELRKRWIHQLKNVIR
Protocol: Cells were transfected with the corresponding GFP-fusion vectors, serum starved overnight, and incubated with 100 μM PITs or PIT-1 is for 2 hr, followed by stimulation with 100 ng/ml PDGF or 250 ng/ml PMA for 5 min. The translocation was analyzed using fluorescent microscope and was quantitated by counting the number of cells with translocated PH domains in five random fields.
To begin characterizing cellular activity of PITs, a PH domain translocation assay was performed, measuring PIP3-induced association of GFP-fused PH domains with the plasma membrane. This method provides useful means for monitoring status of the PH domain/PIP3 binding in the intact cells. Varnai P et al. (1999) J Biol Chem 274:10983-9. Several PH-domain-containing proteins, which are known to bind PIP3 specifically and efficiently, were examined. […] Oikawa T et al. (2004) Nat Cell Biol 6:420-6.

PDK1 PH domain = PDK1 PH domain (Homo sapiens (Human), UniProt O15530); test: FP PIP3/PDK1 PH domain binding assay; conditions: for IC50: 15 nM TMR-conjugated PIP3, 100 nM PDK1 PH domain, 30 min
Sequence of PDK1 PH domain (O15530 441-551): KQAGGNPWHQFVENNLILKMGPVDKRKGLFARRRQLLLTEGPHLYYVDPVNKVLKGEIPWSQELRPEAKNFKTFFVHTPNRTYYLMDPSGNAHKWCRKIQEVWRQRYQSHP
Source text: In order to identify compounds that disrupt the interaction between PIP3 and PH domains, a high-throughput fluorescence polarization (FP)-binding assay was developed using recombinant 1-123 amino acid N-terminal fragment of human Akt1 (also referred to herein simply as Akt), encompassing the PH domain (PH123 protein), and fluorescent […] PIP3 molecule. The amino acid sequence of human Akt1 is publicly available as, for example, GenBank Accession No. NP_001014432.1 (SEQ ID NO:1), and the corresponding DNA sequence is publicly available as, for example, GenBank Accession No. NM_001014432. Briefly, 5 μM recombinant GST fusion proteins containing 1-123 a.a. N-terminal fragment of human Akt1 (PH 123) or 100 nM 441-551 a.a. region of human PDK1 were incubated with 15 nM TMR-labeled PIP3, PIP2, or PIP5 in buffer containing 50 mM Tris-HCl (pH 7.5), 150 mM NaCl, and 5 mM b-ME for 15 min at room temperature in the dark. FP values were determined using Wallac Victor 3 plate reader. For the primary screen, 50,000 diverse small molecules from Harvard Institute of Chemistry and Cell Biology were screened (iccb.med.harvard.edu). Incubations were carried out for 1 hr. For secondary assays, PIT compounds were added at various concentrations (6.25, 12.5, 25, 50, 100, 150 and 200 μM), followed by a 30 min incubation. The inhibition rates were calculated as inhibition rate=[1−(compound-treated group/control group)]×100%, and IC50 value was determined using Origin6 software (MicroCal, LLC, Northampton, Mass.).

PI3K-PDK1-Akt pathway = test: PIP3-regulated phosphorylation events in U87MG cells; assay type: cell-based, human
Protocol: The effect of PIT-1 on PIP3-mediated signaling was examined in U87MG glioblastoma cells, which show elevated basal levels of PIP3 due to the loss of PTEN. Pore N et al. (2003) Cancer Res 63:236-41.

Row | Structure (SMILES) | cell polarization and lamellipodia formation induced by PDGF (SUM159 cells) | growth factor-induced transwell migration (human cancer cells; dose-dependent) | cancer cell migration (human cancer cells) | IC50 (GRP1 PH domain) [µM] | inhibition of migration in VAV- and WAVE-overexpressing cells compared to control cells [1] | plasma membrane translocation of Btk PH domain (Btk PH domain) | IC50 (PDK1 PH domain) [µM] | inhibition of binding of PIP3 to the PH domain of PDK1 (PDK1 PH domain; FIG. 4) | PI3K-PDK1-Akt signaling in U87MG cells (PI3K-PDK1-Akt pathway)
1 | O=C(NC(=S)Nc1cc([N+](=O)[O-])cc(Cl)c1O)c1ccccc1 [PIT-1] | effective at preventing cell polarization and lamellipodia formation | substantially inhibited | much stronger than that of Akt kinase inhibitor VIII | 40.3 ± 2.8 | larger degree of inhibition of cell migration | significantly inhibited the translocation | 66.7 ± 3.5 | inhibited binding of PIP3 to the PH domain of PDK1 | suppressed activity of the PI3K-PDK1-Akt pathway
2 | O=C(NC(=O)c1ccccc1)Nc1cc([N+](=O)[O-])cc(Cl)c1O [PIT-1i-1, reference compound] | failed to prevent cell polarization | – | neither PIT-1i-1 nor PIT-1i-2 was active | > 200 | lacked activity | inactive | > 200 | – | failed to inhibit PDK1/Akt signaling
3 | COc1c(Cl)cc([N+](=O)[O-])cc1NC(=S)NC(=O)c1ccccc1 [PIT-1i-2] | failed to prevent cell polarization | – | neither PIT-1i-1 nor PIT-1i-2 was active | > 200 | lacked activity | inactive | > 200 | – | failed to inhibit PDK1/Akt signaling
